Patent US12582721B2, “Molybdenum-based feed supplement for bees” (UNIVERSITE DE VERSAILLES—SAINT-QUENTIN-EN-YVELINES, priority 2020, dated 2026)

Key:
[1] = tested on: families of European domestic bees; test: 1st test in hives: morpho-productive characters; type: in vivo, Apis mellifera carpatica; details: for Power of the bee family / Prolificity of the queen / Quantity of honey at the first harvest / Quantity of honey at the first harvest, change versus batch I: overall dose 2 mg per colony; for Power of the bee family / Prolificity of the queen / Quantity of honey at the first harvest: spring feeding, 10 hives; for Quantity of honey at the first harvest, change versus batch I: value in brackets; for Effects on the prolificity of the queen and the amount of honey collected compared to PPh4-Mo2O4-EDTA: 1st test, 2 mg per colony
Procedure: Biological field tests were performed on families of European domestic bees of the species Apis mellifera […] experimental apiary located in the […] forestry district (Republic of Moldova). Feeding with the complex of the invention took place in spring. The biological tests were monitored up to the month of September. To administer the compounds to the bees, a very small amount of bioactive substance was added to two types of sugary feeding products for bees: candy in the form of a paste (70% sucrose, 30% honey) or syrup (50% sucrose, 50% water). The bees were fed by adding the candy/syrup to the feeder located in the inner upper part of the hive. The volume of syrup was adjusted based on the number of bee frames at the initial time, more precisely 200 g of candy per frame and 100 mL of syrup per frame, that is 2 kg of candy and 1 L of syrup per hive of 10 frames. For the first feeding step, candy in the form of a paste was only given once. […] From the start of the test to the end (after the second harvest), all the bees were monitored for several key morpho-producing parameters that reflect the development level of the colony and the vital aspects of the bees. The parameters studied are: the prolificity of the queen (fertility), the power of the colonies, the production of honey and the production of wax. These parameters were monitored in line with the zootechnical standards concerning the assessment of bee families, breeding and certification of beekeeping parental material approved by government decision No. 306 dated Apr. 28, 2011 of the Republic of Moldova. The production of honey (in kg) was determined for each family of bees by adding the amount of honey produced (honey from supers), extracted during the harvest season, to the amount of honey built up in the honeycomb (brood chamber) and left as food for the bees for the winter period (brood honey). The amount of honey produced will be determined for each family, for each extraction, by weighing the frames/honeycomb before and after extraction (with an accuracy of 0.1 kg), the weight difference being the quantity of honey produced that was extracted. The amount of honey left in the honeycomb to feed the bees was determined at the autumn visit (September), by weighing the honey frames and deducting (from their total weight) the total weight of the standard honeycomb frames; for […] type frames (435×300 mm)-0.6 kg, for Langstroth frames (435×230 mm)-0.5 kg. The power of the bee colony represents the number of bees present in the honeycomb at the time of the assessment. The assessment is performed three times per year: at the spring visit (March-April), at the end of spring (20-31 May) and at the visit in autumn (September). After these three assessments, the average power of the bee family is determined. The amount of bees (kg) is determined by multiplying the number of intervals between the frames, uniformly occupied by the bees, by the coefficient 0.25 for the standard […] frame (435×300 mm) and by 0.2 for the standard Langstroth frame (435×230 mm). The prolificity of the queen (eggs/24 hours) is determined during the visit at the end of the spring (20-31 May) by dividing the number of cells with the brood by 12 (duration of development of the brood, days), the number of eggs laid in 24 hours. The number of cells in the honeycomb is determined using the Netz frame by measuring the number of squares (5×5 cm) occupied by the brood, which is multiplied by 100, to give the total number of cells with the brood covered. The molecules tested, their concentration in solution and their annual overall doses are listed below: • 1. […] The concentration of the complex in the syrup: 1.5×10^-7 mol/L. Overall and annual product dose: 2 mg of complex per colony • 2. […] The concentration of the complex in syrup: 3.0×10^-7 mol/L. Overall and annual product dose: 2 mg of complex per colony • 3. […] Overall and annual product dose: 2 mg of complex per colony • 4. […]

[2] = tested on: families of European domestic bees; test: 2nd test in the hives: power of the bee family; type: in vivo, Apis mellifera carpatica; details: overall dose 2 mg/hive, 10 hives
Procedure: The power of the bee colony represents the number of bees present in the honeycomb at the time of the assessment. The assessment is performed three times per year: at the spring visit (March-April), at the end of spring (20-31 May) and at the visit in autumn (September). After these three assessments, the average power of the bee family is determined. The amount of bees (kg) is determined by multiplying the number of intervals between the frames, uniformly occupied by the bees, by the coefficient 0.25 for the standard […] frame (435×300 mm) and by 0.2 for the standard Langstroth frame (435×230 mm). The 2nd test was performed in the same apiary the following year. Feeding with the complex of the invention took place in spring. The biological tests were monitored up to the month of September. The molecules tested, their concentration in solution and their annual overall doses are listed below: • 1. […] The concentration of the complex in syrup: 1.5×10^-7 mol/L. Overall product dose: 2 mg/colony • 2. […] Overall complex dose: 6 mg/colony • 4. LiCH3COO·H2O for comparison, abbreviated as Li-Ac • The feeding is carried out with 2000 g of candy containing 0.8 mg of product then 6 to 7 L of syrup containing 0.2 mg/L of product. The concentration of product in the syrup: 2.36×10^-6 mol/L that is 1.67×10^-5 g/L. Overall product dose: 2 mg/colony

[3] = tested on: Varroa destructor; test: 2nd test in the hives: degree of larvae infestation with Varroa; type: in vivo; details: for Degree of larvae infestation with Varroa: 100 = larvae infestation rate of 28.2%; for Degree of larvae infestation with Varroa, change versus batch I: value in brackets
Procedure: The 2nd test was performed in the same apiary the following year. Feeding with the complex of the invention took place in spring. The biological tests were monitored up to the month of September. The molecules tested, their concentration in solution and their annual overall doses are listed below: • 1. […] The concentration of the complex in syrup: 1.5×10^-7 mol/L. Overall product dose: 2 mg/colony • 2. […] Overall complex dose: 6 mg/colony • 4. LiCH3COO·H2O for comparison, abbreviated as Li-Ac • The feeding is carried out with 2000 g of candy containing 0.8 mg of product then 6 to 7 L of syrup containing 0.2 mg/L of product. The concentration of product in the syrup: 2.36×10^-6 mol/L that is 1.67×10^-5 g/L. Overall product dose: 2 mg/colony [table]

Compound | Power of the bee family [1] | Prolificity of the queen [1] | Quantity of honey at the first harvest [1] | Quantity of honey at the first harvest, change versus batch I [1] | Power of the bee family [2] | Degree of larvae infestation with Varroa ([3]; overall dose 2 mg/hive) | Degree of larvae infestation with Varroa, change versus batch I ([3]; overall dose 2 mg/hive) | Effects on the prolificity of the queen and the amount of honey collected compared to PPh4-Mo2O4-EDTA [1] | Degree of larvae infestation with Varroa ([3]; overall dose 6 mg/hive) | Degree of larvae infestation with Varroa, change versus batch I ([3]; overall dose 6 mg/hive)
CC(=O)[O-].[Li+] [Li—Ac, LiCH3COO·H2O, reference compound] | 98.3 % relative to batch I | 108.8 % relative to batch I | 122.9 % relative to batch I | +22.9% | 97.5 % relative to batch I | 64.9 % relative to batch I | −35.1% |  |  | 
O.O.O.O.O.O.O=C([O-])CN(CCN(CC(=O)[O-])CC(=O)[O-])CC(=O)[O-].[Li+].[Li+].[O]=[Mo+]12[O][Mo+]1(=[O])[O]2 [Li—Mo2O4-EDTA, Li2[Mo2O4 (EDTA)]·6H2O] | 103.3 % relative to batch I | 111.7 % relative to batch I | 143.1 % relative to batch I | +43.1% | 120 % relative to batch I | 42.6 % relative to batch I | −57.4% | higher effects | 18.4 % relative to batch I | −81.6%
O.O.O.O.O.O=C([O-])CN(CCN(CC(=O)[O-])CC(=O)[O-])CC(=O)[O-].[Na+].[Na+].[O]=[Mo+]12[O][Mo+]1(=[O])[O]2 [Na—Mo2O4-EDTA, Na2[Mo2O4 (EDTA)]·5H2O] | 101.2 % relative to batch I | 113.3 % relative to batch I | 149.9 % relative to batch I | +49.9% |  |  |  | higher effects |  | 
O=C([O-])CN(CCN(CC(=O)[O-])CC(=O)[O-])CC(=O)[O-].[O]=[Mo+]12[O][Mo+]1(=[O])[O]2.c1ccc([P+](c2ccccc2)(c2ccccc2)c2ccccc2)cc1.c1ccc([P+](c2ccccc2)(c2ccccc2)c2ccccc2)cc1 [PPh4—Mo2O4-EDTA, (PPh4)2[Mo2O4 (EDTA)]·2.5H2O] | 102.1 % relative to batch I | 107.1 % relative to batch I | 113.3 % relative to batch I | +13.3% | 120 % relative to batch I | 56.0 % relative to batch I | −44.0% |  |  | 
